Assay results published in US20130089601A1, “METHOD FOR TREATING ATHEROSCLEROSIS” (KAOHSIUNG MEDICAL UNIVERSITY, priority 2009, published 2013).

Test system: IL-6
Assay: Real-time qPCR of IL-6 mRNA in HUVECs co-cultured with transfected HASMCs
Type: cell-based, human
Conditions: co-cultured with microRNA-195-transfected HASMCs
Protocol: HASMCs were transfected with negative control microRNA or microRNA-195 with or without the presence of oxLDL. MicroRNA-195-transfected HASMCs were co-cultured with HUVEC. Real-time qPCR analysis of mRNA levels for genes surrogating endothelial functions as well as atherosclerosis, such as vascular cell adhesion molecule-1 (VCAM-1), […] (TNF-a) and interleukin-6 (IL-6), and vasodilation gene, endothelial nitric oxide synthase (eNOS), were determined in HUVECs.

Substance: microRNA-195: Pre-miR miRNA, hsa-miR-195 (product ID PM10827), Ambion Inc., which mimics precursor for mature human miR-195; mimic 5′-UAGCAGCACAGAAAUAUUGGC-3′ (SEQ ID NO: 5) (chemistry not given here)
- IL-6 mRNA level in HUVECs: suppresses
